# From US9376433B2, “(AZA-)isoquinolinone derivatives” (MERCK PATENT GMBH, priority 2012, dated 2016)
# Tests used:
# [1] = target: T1, Tankyrase-2 (Homo sapiens, UniProt Q9H2K2); assay: Tankyrase 2 autoparsylation assay (HTRF enzyme assay); type: biochemical; details: GST-tagged Tankyrase-2 (873-1166 aa)
# T1 construct: GST-tagged Tankyrase-2 (873-1166 aa)
# Procedure: Biochemical activity testing of Tankyrase 1 and 2: Autoparsylation assay
# The autoparsylation assay is run in two steps: the enzymatic reaction in which GST-tagged Tankyrase-1, resp Tankyrase-2 transferred biotinylated ADP-ribose to itself from biotinylated NAD as co-substrate and the detection reaction where a time resolved FRET between cryptate labelled anti-GST bound to the GST tag of the enzyme and Xlent® labelled-streptavidin bound the biotin-parsylation residue is analysed. The autoparsylation activity was detectable directly via the increase in HTRF signal.
# The autoparsylation assay is performed as 384-well HTRF® (Cisbio, Codolet, France) assay format in Greiner low volume nb 384-well microtiter plates and is used for high throughput screen. 250 nM GST-tagged Tankyrase-1 (1023-1327 aa), respectively about 250 nM GST-tagged Tankyrase-2 (873-1166 aa) and 5 μM bio-NAD (Biolog, Life science Inst., Bremen, Germany) as co-substrate are incubated in a total volume of 5 μl (50 mM HEPES, 4 mM Mg-chloride, 0.05% Pluronic F-68, 1.4 mM DTT, 0.5% DMSO, pH 7.7) in the absence or presence of the test compound (10 dilution concentrations) for 90 min at 30° C. The reaction is stopped by the addition of 1 μl 50 mM EDTA solution. 2 μl of the detection solution (1.6 μM SA-Xlent® (Cisbio, Codolet, France), 7.4 nM Anti-GST-K® (Eu-labelled anti-GST, Cisbio, Codolet, France) in 50 mM HEPES, 800 mM KF, 0.1% BSA, 20 mM EDTA, 0.1% CHAPS, pH 7.0) are added. After 1 h incubation at room temperature the HTRF is measured with an Envision multimode reader (Perkin Elmer LAS Germany GmbH) at excitation wavelength 340 nm (laser mode) and emission wavelengths 615 nm and 665 nm. The ratio of the emission signals is determined. The full value used is the inhibitor-free reaction. The pharmacological zero value used is XAV-939 (Tocris) in a final concentration of 5 μM. The inhibitory values (IC50) are determined using either the program Symyx Assay Explorer® or Condosseo® from GeneData.
# [2] = target: T2, TNKS2 (Homo sapiens, UniProt Q9H2K2); assay: TNKS2 activity ELISA (autoparsylation assay); type: biochemical; details: GST-tagged Tnks-2 (873-1166 aa), luminescence
# T2 construct: GST-tagged Tnks-2 (873-1166 aa, prepared in-house); made in house
# Procedure: Description of the TNKS1 and TNKS2 ELISA Assay
# Biochemical activity testing of TNKS 1 and 2: activity ELISA (Autoparsylation assay)
# For analysis of autoparsylation activity of TNKS 1 and 2 an activity ELISA iss performed: In the first step GST tagged TNKS is captured on a Glutathione coated plate. Then the activity assay with biotinylated NAD is performed in the absence/presence of the compounds. During the enzymatic reaction GST tagged TNKS transfers biotinylated ADP-ribose to itself from biotinylated NAD as co-substrate. For the detection streptavidin-HRP conjugate is added that binds to the biotinylated TNKS and is thereby captured to the plates. The amount of biotinylated resp. autoparsylated TNKS is detected with a luminescence substrate for HRP. The level of the luminescence signal correlats directly with the amount of autoparsylated TNKS and therefore with activity of TNKS.
# The acitivity ELISA is performed in 384 well Glutathione coated microtiter plates (Express capture Glutathione coated plate, Biocat, Heidelberg, Germany). The plates are pre-equilibrated with PBS. Then the plates are incubated with 50 μl 20 ng/well GST-tagged Tnks-1 (1023-1327 aa, prepared in-house), respectively GST-tagged Tnks-2 (873-1166 aa, prepared in-house) in assay buffer (50 mM HEPES, 4 mM Mg-chloride, 0.05% Pluronic F-68, 2 mM DTT, pH 7.7) overnight at 4° C. The plates are washed 3 times with PBS-Tween-20. The wells are blocked by incubation at room temperature for 20 minutes with 50 μl blocking buffer (PBS, 0.05% Tween-20, 0.5% BSA). Afterwards the plates are washed 3 times with PBS-Tween-20. The enzymatic reaction is performed in 50 μl reaction solution (50 mM HEPES, 4 mM Mg-chloride, 0.05% Pluronic F-68, 1.4 mM DTT, 0.5% DMSO, pH 7.7) with10 μM bio-NAD (Biolog, Life science Inst., Bremen, Germany) as co-substrate in the absence or presence of the test compound (10 dilution concentrations) for 1 hour at 30° C. The reaction is stopped by 3 times washing with PBS-Tween-20. For the detection 50 μl of 20 ng/μl Streptavidin, HRP conjugate (MoBiTec, Göttingen, Germany) in PBS/0.05% Tween-20/0.01% BSA are added and the plates are incubated for 30 minutes at room temperature. After three times washing with PBS-Tween-20 50 μl of SuperSignal ELISA Femto Maximum sensitivity substrate solution (ThermoFisherScientific (Pierce), Bonn, Germany) are added. Following a 1 minute incubation at room temperature luminescence signals are measured with an Envision multimode reader (Perkin Elmer LAS Germany GmbH) at 700 nm. The full value used is the inhibitor-free reaction. The pharmacological zero value used is XAV-939 (Tocris) in a final concentration of 5 μM. The inhibitory values (IC50) are determined using either the program Symyx Assay Explorer® or Condosseo® from GeneData.
# T2 sequence (Q9H2K2 873-1166): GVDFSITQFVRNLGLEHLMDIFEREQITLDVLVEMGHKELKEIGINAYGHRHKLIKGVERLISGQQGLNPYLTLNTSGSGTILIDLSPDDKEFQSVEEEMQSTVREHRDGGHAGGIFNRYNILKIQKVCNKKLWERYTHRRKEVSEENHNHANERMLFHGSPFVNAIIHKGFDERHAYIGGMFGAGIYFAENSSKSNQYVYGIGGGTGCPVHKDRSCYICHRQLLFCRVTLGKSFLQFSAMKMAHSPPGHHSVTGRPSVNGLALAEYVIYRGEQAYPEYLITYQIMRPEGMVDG
# T1 sequence (Q9H2K2 873-1166): as above
Structure (SMILES),IC50 [1],IC50 [2]
"Cc1ccc(-c2cc3cc(F)ccc3c(=O)[nH]2)cc1 [Compound A10, 6-fluoro-3-p-tolyl-2H-isoquinolin-1-one]",300 to 3000 nM,< 300 nM
"CC(C)(O)c1ccc(-c2cc3cnccc3c(=O)[nH]2)cc1 [Compound A23, 3-[4-(1-hydroxy-1-methyl-ethyl)phenyl]-2H-2,6-naphthyridin-1-one]",< 300 nM,< 300 nM
"Cc1ccc(-c2cc3cccc(F)c3c(=O)[nH]2)cc1 [Compound A11, 8-fluoro-3-p-tolyl-2H-isoquinolin-1-one]",< 300 nM,< 300 nM
"CC(C)(O)c1ccc(-c2cc3ccncc3c(=O)[nH]2)cc1 [Compound A24, 3-[4-(1-hydroxy-1-methyl-ethyl)phenyl]-2H-2,7-naphthyridin-1-one]",< 300 nM,< 300 nM
"CC(C)(O)c1ccc(-c2cc3c(F)cc(F)cc3c(=O)[nH]2)cc1 [Compound A33, 5,7-difluoro-3-[4-(1-hydroxy-1-methyl-ethyl)-phenyl]-2H-isoquinolin-1-one]",300 to 3000 nM,< 300 nM
"CC(C)(O)c1ccc(-c2cc3cc(F)ccc3c(=O)[nH]2)cc1 [Compound A5, 6-fluoro-3-[4-(1-hydroxy-1-methyl-ethyl)-phenyl]-2H-isoquinolin-1-one]",300 to 3000 nM,< 300 nM
"CC(C)(N)c1ccc(-c2cc3ccc(F)cc3c(=O)[nH]2)cc1 [Compound A20, 3-[4-(1-amino-1-methyl-ethyl)phenyl]-7-fluoro-2H-isoquinolin-1-one]",< 300 nM,< 300 nM
"CC(C)(O)c1ccc(-c2cc3ccccc3c(=O)[nH]2)cc1 [Compound A3, 3-[4-(1-hydroxy-1-methyl-ethyl)-phenyl]-2H-isoquinolin-1-one]",< 300 nM,< 300 nM
"Cn1cc(-c2ccc(-c3cc4ccc(F)cc4c(=O)[nH]3)cc2)cn1 [Compound A18, 7-fluoro-3-[4-(1-methyl-1H-pyrazol-4-yl)-phenyl]-2H-isoquinolin-1-one]",300 to 3000 nM,< 300 nM
"CC(C)(O)c1ccc(-c2cc3ccc(F)cc3c(=O)[nH]2)cc1 [Compound A6, 7-fluoro-3-[4-(1-hydroxy-1-methyl-ethyl)-phenyl]-2H-isoquinolin-1-one]",< 300 nM,< 300 nM
"COC(C)(C)c1ccc(-c2cc3ccccc3c(=O)[nH]2)cc1 [Compound A15, 3-[4-(1-methoxy-1-methyl-ethyl)-phenyl]-2H-isoquinolin-1-one]",300 to 3000 nM,< 300 nM
"CC(C)(O)c1ccc(-c2cc3c(F)cccc3c(=O)[nH]2)cc1 [Compound A28, 5-fluoro-3-[4-(1-hydroxy-1-methyl-ethyl)phenyl]-2H-isoquinolin-1-one]",< 300 nM,< 300 nM
"Cc1ccc(-c2cc3ccc(F)cc3c(=O)[nH]2)cc1 [Compound A9, 7-fluoro-3-p-tolyl-2H-isoquinolin-1-one]",< 300 nM,< 300 nM
"Cn1cc(-c2ccc(-c3cc4ccncc4c(=O)[nH]3)cc2)cn1 [Compound A14, 3-[4-(1-Methyl-1H-pyrazol-4-yl)-phenyl]-2H-[2,7]naphthyridin-1-one]",300 to 3000 nM,< 300 nM
"C=C(C)c1ccc(-c2cc3ccc(F)cc3c(=O)[nH]2)cc1 [Compound A17, 7-fluoro-3-(4-isopropenyl-phenyl)-2H-isoquinolin-1-one]",300 to 3000 nM,< 300 nM
"CC(C)(O)c1ccc(-c2cc3cccc(F)c3c(=O)[nH]2)cc1 [Compound A27, 8-fluoro-3-[4-(1-hydroxy-1-methyl-ethyl)phenyl]-2H-isoquinolin-1-one]",< 300 nM,< 300 nM
"Cc1ccc(-c2cc3c(F)cccc3c(=O)[nH]2)cc1 [Compound A12, 5-fluoro-3-p-tolyl-2H-isoquinolin-1-one]",300 to 3000 nM,< 300 nM
"Cc1ccc(-c2cc3c(C)cccc3c(=O)[nH]2)cc1 [Compound A29, 5-methyl-3-(p-tolyl)-2H-isoquinolin-1-one]",300 to 3000 nM,< 300 nM
"CC(C)(OCCO)c1ccc(-c2cc3ccc(F)cc3c(=O)[nH]2)cc1 [Compound A16, 7-fluoro-3-{4-[1-(2-hydroxy-ethoxy)-1-methyl-ethyl]-phenyl}-2H-isoquinolin-1-one]",< 300 nM,< 300 nM
